Earlier results as cited in patent publication US11744789B2, “Method for dyeing keratinous material, comprising the use of an organosilicon compound, a colored effect pigment and a sealing reagent III” (Henkel AG & Co. KGaA, priority 2019, dated 2023).

Settings: for solubility in water: 25° C.

Structure (SMILES)	solubility in water	solubility in water (in words) (at 25° C.)
O=S(=O)(O)c1ccc(N=Nc2c(O)ccc3ccccc23)cc1 [Acid Orange 7, 4-[(2-hydroxy-1-naphthyl)azo]benzene sulphonate]	more than 7 g/L	–
O=[N+]([O-])c1cc([N+](=O)[O-])c2ccc(S(=O)(=O)O)cc2c1O [Acid Yellow 9, 8-hydroxy-5,7-dinitro-2-naphthalenesulfonic acid]	above 40 g/L	–
O=C(O)C1=NN(c2ccc(S(=O)(=O)O)cc2)C(=O)C1N=Nc1ccc(S(=O)(=O)O)cc1 (stereo not drawn) [Acid Yellow 23, 4,5-dihydro-5-oxo-1-(4-sulfophenyl)-4-((4-sulfophenyl)azo)-1H-pyrazole-3-carboxylic acid]	–	highly soluble in water
